According to US20040259952A1 (priority 2001, published 2004):

Experiments:
[1] = cited from earlier work
[2] = test system: airway resistance of the sheep after challenge with ascaris; assay: Airway resistance after ascaris challenge in sheep given oral cromolyn
Method: A control formulation without cromolyn was also administered to an additional group. The biological effect of the cromolyn was assessed using changes in airway resistance of the sheep after challenge with ascaris.

[3] = cited from earlier work; remark: listed apart in the source
[4] = Single escalating dose study of Cromolyn/SNAC capsules: plasma pharmacokinetics of cromolyn and SNAC; details: with SNAC
Method: This study was a randomized, open label, oral, single escalating dose administration study in healthy, fasted volunteers.
The study was carried out in two parts. […] Safety and pharmacokinetic measures were collected and evaluated following each dose.
On day one of each study treatment period, medication (capsules) was administered following an 8-hour overnight fast. The capsules were swallowed with up to 120 mL of water to the subjects in an upright position.
The process could be summarized as follows: First, sieve SNAC powder through a screen, or delump it using a pestle/mortar.

[5] = Multiple dose study (twice daily for ten days): plasma pharmacokinetics of cromolyn and SNAC
Method: Two groups of human males were defined: group 1 consisted of 12 healthy male volunteers, and group 2 had 12 allergic male volunteers. […] The dosing regimen is illustrated in Table 7 below.
Each subject received oral dosing of the study medication twice a day for nine days. On the last day (i.e., day 10), only the morning dose was administered. The capsules were administered with up to 200 mL of water to the subjects in an upright position. The first dose of each day was administered following an overnight fast, and the second dose of each day was administered at least 1 hour before a meal or 4 hours after a meal. No food was allowed for at least 4 hours before the oral dosing.
Pharmacodynamics were measured for Group 1 and 2 by measuring the length and width of the wheal and flare reaction, and permanent records were generated by marking on transparent tapes and/or by photographs. For Group 2 only, pharmacodynamics were also measured by VAS scores and PNIF measurements before and after nasal provocation test.

[6] = Administration of cromolyn to rats: serum pharmacokinetics by HPLC; format: in vivo, Sprague-Dawley rats
Method: Male Sprague-Dawley rats weighing 225-275 grams were fasted for 24 hours. Rats were anesthized by intra-muscular injection with ketamine and thorazine. Experimental groups were dosed by oral gavage or by intravenous injection. Blood samples were collected serially via the tail artery. Serum obtained from whole blood was acidified and cromolyn extracted with ethyl acetate. The ethyl acetate was added to phosphate buffer or back extraction of cromolyn. Pharmacokinetic parameters were determined from extracted serum by HPLC.

wheal and flare reaction = assay: Wheal and flare reaction after intracutaneous injection of codeine/histamine or allergen/histamine; format: in vivo, human; details: stimulated with codeine
Method: From the literature there are indications that nasal and lung mast cells are more sensitive to cromolyn. […] Healthy subjects received codeine/histamine to induce wheal and flare reaction, and allergic subjects received allergen/histamine to induce wheal and flare reaction.
Wheal and flare reaction was read 15 min. after the injections of codeine/histamine or allergen/histamine, traced by pen onto transparent cellophane and the length and width of the reaction was measured. Wheal and flare reaction was measured for Group 1 (healthy subjects) after intracutaneous injection of codeine/histamine before the morning dose on day 1, at 45 minutes after the morning dose on days 1, 2, 4, 6, 8 and 10, and at 4 and 8 hours after the morning dose on days 2, 4 and 10. Wheal and flare reaction was measured for Group 2 (subjects with allergies) after injection with allergen/histamine before the morning dose on day 1, at 60 minutes after the morning dose on days 4 and 10, and at 8 hours after the morning dose on day 4.

[7] = Single dose study: safety and tolerability; format: in vivo, human; details: SNAC administered alone
Method: Cromolyn sodium was orally administered to healthy human subjects in a study designed to evaluate the safety, tolerability, oral absorption and pharmacokinetics data following various doses of cromolyn orally administered in combination with the delivery agent SNAC as capsules. […] This study was a randomized, open label, oral, single escalating dose administration study in healthy, fasted volunteers.
On day one of each study treatment period, medication (capsules) was administered following an 8-hour overnight fast. The capsules were swallowed with up to 120 mL of water to the subjects in an upright position. After each dosing, safety, and pharmacokinetic measures were taken, and cromolyn concentrations were evaluated.

[8] = serum cromolyn, Cromolyn 1.5 mg/kg IV

Compound: 5,5′-[(2-hydroxy-1,3-propanediyl)bis-(oxy)]4-oxo-4H-1-benzopyran-2-carboxylic acid [cromolyn]
- solubility in water [1]: freely soluble in water
- mean protection vs. the peak control response ([2]; 100 mg/kg cromolyn and 300 mg/kg delivery agent 12 hours prior to challenge): 77%
- P-Acaris % (change in airway resistance) ([2]; Drug Trial, Means, 300 mg/kg CR-1 & 100 mg/kg Cromolyn oral 12 hrs. before Ag. challenge): approximately 157%
- dose eliminated unchanged in the feces ([3]; in vivo): Roughly 98%
- absolute bioavailability ([3]; inhalation dose of 20 mg): about 8%
- inhaled dose that reaches the lungs ([3]; inhalation): 5-10%
- systemic bioavailability ([3]; oral cromolyn without the delivery agents): approximately 1%
- mean elimination half-life [4]: 60 to 120 min
- time of maximum plasma concentrations post-dose [4]: about 20 minutes
- time within which plasma concentrations declined to negligible levels ([5]; after each drug administration): ≤ 4 h
- oral absorption (plasma concentration) ([5]; cromolyn administered without SNAC): < 2.3 ng/mL
- mean plasma concentrations ([5]; cromolyn given in combination with 600 mg SNAC): up to 65 ng/mL
- time of peak concentrations after drug administration ([5]; cromolyn given orally in combination with SNAC, fasting male volunteers): approximately 20 minutes
- plasma half-life ([5]; multiple dose study): ~45 min
- serum cromolyn concentrations ([6]; control group, cromolyn alone): No detectable
- area under the serum concentration-time curve (AUC) ([6]; intravenous cromolyn 1.5 mg/kg): 20.4 µg·min/mL
- peak serum concentration (Cmax) ([6]; intravenous cromolyn 1.5 mg/kg): 1300 ng/mL
- time of peak serum concentration (Tmax) ([6]; intravenous cromolyn 1.5 mg/kg): 0 h
- Avg. AUC [6, 8]: 20.4 µg·min/mL
- Avg. Cmax [6, 8]: 1300 ng/mL
- Tmax [6, 8]: 0 h
- effects on skin mast cell degranulation (wheal and flare) (wheal and flare reaction): no significant effects

Compound: O=C([O-])CCCCCCCNC(=O)c1ccccc1O.[Na+] [SNAC, Sodium N-[8-(2-hydroxybenzoyl)amino]caprylate]
- effect on human subjects [7]: did not display any significant effect
- Tmax ([5]; male, human, in vivo): ~30 min
- half-life ([5]; male, human, in vivo): ~25 min
- accumulation during multiple dose treatment ([5]; twice daily dosing): no accumulation
